Assays:
IBD in mice = experiment: Efficacy on IBD in mice; type: in vivo, mouse; conditions: for DAI / body weight / inflammatory cell infiltration score of colon tissues / tissue injury score of colon tissues: vs G2 model group; for Colon weight CW (g): day 0 to day 9, DSS mice
Experimental: The mice in G2 to G6 were given 2% DSS aqueous solution on day 0 to day 6, normal water on […], vehicle/positive/test substance on day 0 to day 9, and euthanized on day 10 for necropsy. Colon weight (CW) and colon length (CL) were measured and colon tissues […] were subjected to histopathological examination.

15-PGDH = 15-PGDH (Homo sapiens (Human), UniProt P15428); experiment: Inhibition test of compounds on 15-PGDH enzyme; type: biochemical
15-PGDH, sequence (P15428 whole entry): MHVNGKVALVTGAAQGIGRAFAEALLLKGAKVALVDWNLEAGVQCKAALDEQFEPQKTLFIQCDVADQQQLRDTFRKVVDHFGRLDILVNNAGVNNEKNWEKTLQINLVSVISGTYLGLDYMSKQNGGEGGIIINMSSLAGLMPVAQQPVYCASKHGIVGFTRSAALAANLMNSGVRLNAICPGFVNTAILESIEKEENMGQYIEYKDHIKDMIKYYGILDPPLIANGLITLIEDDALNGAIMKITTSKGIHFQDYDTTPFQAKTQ
Experimental: 15-PGDH (R&D Systems, Cat. No.: 5660-DH-010) was prepared to twice the final concentration, i.e., 30 nM, using Assay Buffer (50 mM Tris-HCl, pH 7.5, 0.01vol % Tween 20). The obtained mixture was then added to a 384-well white plate (Cisbio Bioassays, Cat. No. 66PL384025) at 8 μL/well. Negative control wells (with Assay Buffer only and without enzyme) were set. The compound was then prepared to 4 times the final concentration using Assay Buffer, i.e., diluted 3-fold to 10 concentrations starting from 4000 nM. The obtained mixture was added to the above white plate at 4 μL/well, mixed well, centrifuged at 1000 rpm for 1 minute, and incubated at 25° C. for 10 minutes. Both positive control wells (with 15-PGDH only) and negative control wells (without 15-PGDH) were set. A mixture of NAD^+(Select, Cat. No. S2518) and PGE2 (R&D Systems, Cat. No.: 2296/10) was then prepared using Assay Buffer. NAD^+ and PGE2 were prepared to four times their final concentrations, i.e., 2 mM and 0.12 mM, respectively, using Assay Buffer. The obtained mixture was then added to the above white plate at 4 μL/well, mixed well, centrifuged at 1000 rpm for 1 minute, and incubated at 25° C. for 30 minutes for the reaction. The fluorescence was detected at an excitation wavelength of 340 nm and an emission wavelength of 485 nm using instrument TECAN SPARK 20M. The IC50 value was calculated using four-parameter fitting with GraphPad Prism 8.0.

A549 cells = experiment: Effect of compounds on PGE2 levels in A549 cell supernatant; type: cell-based; conditions: 20 nM compound, about 12 hours, after IL-10 stimulation; ELISA
Experimental: A549 cells (Procell, Wuhan) were cultured in F12K+10% FBS. The cells with good status in log phase were selected for the experiment, digested, counted, and inoculated into a 24-well plate at 8000 cells per well. The cells were cultured in a 37° C., 5% CO2 incubator overnight. After adherence, the cells were transferred to a culture medium containing 0.5% FBS and cultured for about 10 hours. IL-10 was added to each well (final concentration of 20 ng/mL, 1 mL per well), and a control group (without IL-10) was set up. After stimulation with IL-10 for about 24 hours, the cell culture medium of each well was aspirated and discarded, and the wells were gently washed with fresh culture medium containing 0.5% FBS. 400 μL of culture medium containing the compound of different concentrations (20 nM and 2500 nM) was added to each well and cultured for about 12 hours. The supernatant was collected and PGE2 was detected using ELISA kit (R&D Systems, Cat. No.: KGE004B).

Pharmacokinetics in mice = type: in vivo; conditions: mouse, po; male CD-1 mice, 10 mg/kg, gavage, plasma
Experimental: The pharmacokinetic properties of the compounds of the present disclosure in mice were determined with reference to the following experimental methods.
Three male CD-1 mice were used, administered at a dose of 10 mg/kg, the route of administration was by gavage, and the vehicle was 5% DMSO+10% Solutol+85% Saline. The mice were fasted overnight, and the time points of blood collection were before administration and at 15 minutes, 30 minutes, 1 hour, 2 hours, 4 hours, 8 hours, and 24 hours after administration. Blood samples were centrifuged at 6800 g for 6 minutes at 2 to 8° C., and plasma was collected and stored at −80° C. 10 μL of plasma at each time point was taken, and added with 200 μL of methanol containing 100 ng/mL internal standard. The mixture was vortexed, mixed evenly, and then centrifuged at 18000 g for 7 minutes at 2 to 8° C. 200 μL of the mixture was transferred to a 96-well injection plate for LC-MS/MS quantitative analysis. The main pharmacokinetic parameters were analyzed using WinNonlin 7.0 software with non-compartmental model.

| SMILES | IC50 (15-PGDH) | Fold increase of PGE2 in A549 cell supernatant (A549 cells) | AUC(0-t) (Pharmacokinetics in mice) | Cmax (Pharmacokinetics in mice) | other results |
| --- | --- | --- | --- | --- | --- |
| Cn1nc2cc(N3CC4CC4c4cc(C(=O)N5CCC(F)(F)CC5)cnc43)ccn2c1=O (single isomer, unassigned) [Compound I-3B] |  |  |  |  | DAI (IBD in mice; G4, 2.5 mg/kg bid): significant decrease; body weight (IBD in mice; G4, 2.5 mg/kg bid): increase; inflammatory cell infiltration score of colon tissues (IBD in mice; G4, 2.5 mg/kg bid): significant decrease; tissue injury score of colon tissues (IBD in mice; G4, 2.5 mg/kg bid): significant decrease; Colon weight CW (g) (IBD in mice; G4 low-dose, 2.5 mg/kg bid): significant decrease; DAI (IBD in mice; G5, 5 mg/kg bid): significant decrease; body weight (IBD in mice; G5, 5 mg/kg bid): significant increase; inflammatory cell infiltration score of colon tissues (IBD in mice; G5, 5 mg/kg bid): significant decrease; tissue injury score of colon tissues (IBD in mice; G5, 5 mg/kg bid): significant decrease; Colon weight CW (g) (IBD in mice; G5 high-dose, 5 mg/kg bid): significant decrease |
| Cn1ccc2cc(N3CC4CC4c4cc(C(=O)N5CCC(F)(F)CC5)cnc43)ccc2c1=O (stereo not drawn) [Compound I-12, 6-(6-(4,4-difluoropiperidine-1-carbonyl)-1,1a,2,7b-tetrahydro-3H-cyclopropa[c][1,8]naphthyridin-3-yl)-2-methylisoquinolin-1(2H)-one] | 2.1 nM | 5.44 | 107000 ng·h/mL | 14800 ng/mL |  |
| Cn1nc2cc(N3CC4CC4c4cc(C(=O)N5CCC6(CC5)CC6)cnc43)ccn2c1=O (stereo not drawn) [Compound I-28, 7-(6-(6-azaspiro[2.5]octane-6-carbonyl)-1,1a,2,7b-tetrahydro-3H-cyclopropa[c][1,8]naphthyridin-3-yl)-2-methyl-[1,2,4]triazolo[4,3-a]pyridin-3(2H)-one] | 1.71 nM | 4.05 | 10700 ng·h/mL | 5040 ng/mL |  |
| Cn1nc2cc(N3CC4CC4c4cc(C(=O)N5CCC[C@@H](CF)C5)cnc43)ccn2c1=O (stereo partly drawn) [Compound I-30, 7-(6-((R)-3-(fluoromethyl)piperidine-1-carbonyl)-1,1a,2,7b-tetrahydro-3H-cyclopropa[c][1,8]naphthyridin-3-yl)-2-methyl-[1,2,4]triazolo[4,3-a]pyridin-3(2H)-one] | 6 nM | 2.72 |  |  |  |
| Cn1nc2cc(N3CC4CC4c4cc(C(=O)N5CCC[C@H](CF)C5)cnc43)ccn2c1=O (stereo partly drawn) [Compound I-31, 7-(6-((S)-3-(fluoromethyl)piperidine-1-carbonyl)-1,1a,2,7b-tetrahydro-3H-cyclopropa[c][1,8]naphthyridin-3-yl)-2-methyl-[1,2,4]triazolo[4,3-a]pyridin-3(2H)-one] | 4.1 nM | 2.90 |  |  |  |
| CCn1nc2cc(N3CC4CC4c4cc(C(=O)N5CCC(F)(F)CC5)cnc43)ccn2c1=O (stereo not drawn) [Compound I-32, 7-(6-(4,4-difluoropiperidine-1-carbonyl)-1,1a,2,7b-tetrahydro-3H-cyclopropa[c][1,8]naphthyridin-3-yl)-2-ethyl-[1,2,4]triazolo[4,3-a]pyridin-3(2H)-one] | 6.3 nM | 3.7 |  |  |  |
